Reference: publication PMC11738990, “A small-molecule TNIK inhibitor targets fibrosis in preclinical and clinical models” (Nature Biotechnology, 2024)
Values joined by “and” are separate entries in the source; they are usually repeats but may differ in a detail not shown here. Identical values can stand only once. Like-named read-outs stand apart in the source and are kept apart here.

Columns and labels:
A549 cells = settings: for Smad2/3/GAPDH normalized / p- Smad2/3/GAPDH normalized / N-Cadherin/GAPDH normalized / b-catenin/ HDAC2 normalized / b-catenin/ Histone 3 normalized / b-catenin/ tubulin normalized: TGF-β=1; for E-Cadherin/GAPDH normalized: DMSO=1; for P65/GAPDH normalized / p-P65/GAPDH normalized: TGF-β+TNF-a=1
NHDF cells = assay: Fibronectin and procollagen I in supernatant (ELISA); format: cell-based, human; settings: TGF-β 10 ng/ml, 72 h
Protocol: The medium was then replaced with assay medium containing or not containing (control conditions) the test compounds, and TGF-β (10 ng ml^−1) was added or not (unstimulated control). […] Fibronectin and procollagen I contents were measured in the culture supernatants using specific ELISA kits (Takara, MK115 for fibronectin and MK101 for procollagen type I) according to the supplier’s instructions.

[1] = tested on: primary bronchial epithelial cells from healthy donors; assay: EMT by FN1, high-content analysis; format: cell-based, human; settings: three healthy individuals
Protocol: For the measurement of EMT by FN1, on the first day, human primary bronchial epithelial cells were seeded. After 2 d, the medium of the cells was refreshed. […] After 1 h, all cells were treated with 5 ng ml^−1 TGF-β1. On the ninth day (72 h after triggering), cells were fixed with 4% formaldehyde, stained for FN1 and with DAPI and then imaged and quantified via HCA (IN Cell Analyzer 2200, GE Healthcare).
Segmentation and quantification of α-SMA and FN1 immunoreactivity was carried out with an HCA algorithm, with density × area (D × A) output. Data normalization of raw α-SMA or FN1 (D × A) to percent inhibition values was performed on a plate-to-plate basis.
[…]
μp is the average α-SMA or FN1 value of the positive control (TGF-β1 + 1 μM SB525334). μn is the average α-SMA or FN1 value of the vehicle control (TGF-β1 + 0.1% DMSO). Xi is the compound α-SMA or FN1 value. IC50 values for all compounds (if calculable, based on the point of inflection) were calculated with GraphPad Prism using non-linear fit of log (inhibitor) versus response (four parameter).
DAPI fluorescence was applied for HCA-based quantification of the number of imaged cells on a plate-to-plate basis.
Percent remaining cells = (Xi/μn) × 100%
μn is the average number of nuclei of the vehicle control (TGF-β1 + 0.1% DMSO). Xi is the compound number of nuclei.

healthy subjects = assay: Phase I New Zealand safety (NCT05154240); settings: n (%) [E]
[2] = 1 μM, TGF-β+TNF-a group, Batch 1
[3] = 1 μM, TGF-β+TNF-a group, Batch 2
[4] = 1 μM, TGF-β+TNF-a group, Batch 3
[5] = 3 μM, TGF-β+TNF-a group, Batch 1
[6] = 3 μM, TGF-β+TNF-a group, Batch 2
[7] = 3 μM, TGF-β+TNF-a group, Batch 3

## CC(C)n1cnc(-c2ccc(F)cc2)c1-c1nc(C(=O)Nc2ccc(N3CCN(C)CC3)cc2)c[nH]1 [INS018_055, 2-[4-(4-fluorophenyl)-1-(prop-2-yl)imidazol-5-yl]-N-[4-(4-methylhexahydropyrazin-1-yl)phenyl]-1H-imidazole-4-carboxamide]
A549 cells; 1 μM, Batch 1
  Smad2/3/GAPDH normalized: 1.22
  p- Smad2/3/GAPDH normalized: 0.02816
A549 cells; 1 μM, Batch 2
  E-Cadherin/GAPDH normalized: 1.0948
  N-Cadherin/GAPDH normalized: 0.1737
  Smad2/3/GAPDH normalized: 1.233
  b-catenin/ HDAC2 normalized: 0.9055
  b-catenin/ Histone 3 normalized: 0.7183
  b-catenin/ tubulin normalized: 0.408
  p- Smad2/3/GAPDH normalized: 0.1116
A549 cells; 1 μM, Batch 3
  E-Cadherin/GAPDH normalized: 1.05
  N-Cadherin/GAPDH normalized: 0.09916
  Smad2/3/GAPDH normalized: 1.054
  b-catenin/ HDAC2 normalized: 0.9651
  b-catenin/ Histone 3 normalized: 0.7434
  b-catenin/ tubulin normalized: 0.8806
  p- Smad2/3/GAPDH normalized: 0.1186
A549 cells; 1 μM, Batch 4
  b-catenin/ HDAC2 normalized: 1.855
  b-catenin/ Histone 3 normalized: 0.679
  b-catenin/ tubulin normalized: 1.374
A549 cells; 1 μM, TGF-β group, Batch 1
  P65/GAPDH normalized: 0.3482
  p-P65/GAPDH normalized: 0.05447
A549 cells; 1 μM, TGF-β group, Batch 2
  P65/GAPDH normalized: 0.9166
  p-P65/GAPDH normalized: 0.06504
A549 cells; 1 μM, TGF-β group, Batch 3
  P65/GAPDH normalized: 0.4988
  p-P65/GAPDH normalized: 0.05557
A549 cells; [2]
  P65/GAPDH normalized: 0.397
  p-P65/GAPDH normalized: 0.497
A549 cells; [3]
  P65/GAPDH normalized: 0.7304
  p-P65/GAPDH normalized: 0.6585
A549 cells; [4]
  P65/GAPDH normalized: 0.3751
  p-P65/GAPDH normalized: 0.3266
A549 cells; 3 μM, Batch 1
  E-Cadherin/GAPDH normalized: 1.832
  N-Cadherin/GAPDH normalized: 0.1802
  Smad2/3/GAPDH normalized: 1.447
  p- Smad2/3/GAPDH normalized: 0.01636
A549 cells; 3 μM, Batch 2
  E-Cadherin/GAPDH normalized: 1.252
  N-Cadherin/GAPDH normalized: 0.1613
  Smad2/3/GAPDH normalized: 1.278
  b-catenin/ HDAC2 normalized: 1.403
  b-catenin/ Histone 3 normalized: 0.21
  b-catenin/ tubulin normalized: 0.2321
  p- Smad2/3/GAPDH normalized: 0.09113
A549 cells; 3 μM, Batch 3
  E-Cadherin/GAPDH normalized: 1.09
  N-Cadherin/GAPDH normalized: 0.0841
  Smad2/3/GAPDH normalized: 1.0906
  b-catenin/ HDAC2 normalized: 0.958
  b-catenin/ Histone 3 normalized: 0.258
  b-catenin/ tubulin normalized: 1.067
  p- Smad2/3/GAPDH normalized: 0.09865
A549 cells; 3 μM, Batch 4
  b-catenin/ HDAC2 normalized: 2.079
  b-catenin/ Histone 3 normalized: 0.1136
  b-catenin/ tubulin normalized: 1.238
A549 cells; 3 μM, TGF-β group, Batch 1
  P65/GAPDH normalized: 0.5411
  p-P65/GAPDH normalized: 0.07665
A549 cells; 3 μM, TGF-β group, Batch 2
  P65/GAPDH normalized: 0.9083
  p-P65/GAPDH normalized: 0.116
A549 cells; 3 μM, TGF-β group, Batch 3
  P65/GAPDH normalized: 0.5638
  p-P65/GAPDH normalized: 0.08352
A549 cells; [5]
  P65/GAPDH normalized: 0.3919
  p-P65/GAPDH normalized: 0.3522
A549 cells; [6]
  P65/GAPDH normalized: 0.5755
  p-P65/GAPDH normalized: 0.6038
A549 cells; [7]
  P65/GAPDH normalized: 0.3478
  p-P65/GAPDH normalized: 0.3112
NHDF cells; read-out: IC50, fibronectin in supernatant
  IC50: ~135 nM
NHDF cells; read-out: IC50, procollagen I in supernatant
  IC50: ~232 nM
[1]
  IC50: 63 nM (2×) and 500 nM
Healthy subjects; MAD any dose N=18
  Any Death: 0 [0]
Healthy subjects; SAD any dose N=30
  Any Death: 0 [0]
